Data taken from article PMC8634879, “Design, Synthesis, and Biological Evaluation of Pyrano[2,3-c]-pyrazole–Based RalA Inhibitors Against Hepatocellular Carcinoma” (Frontiers in Chemistry, 2021).

What was measured:
Huh-7 cells = assay: Cell proliferation assay (MTT), Huh-7; format: cell-based; settings: Homo sapiens, Table 1, cell proliferation inhibition, read-out: IC50 (μM) Huh7
Protocol: (§1) The antibodies recognizing LC3, p62/SQSTM1, RalA, RalB, and GAPDH were purchased from Proteintech (Wuhan, China). HCC cell lines, including HepG2, Hep3B, Huh-7, and SMMC-7721, were obtained from the Chinese Center for Type Culture Collection (Wuhan, China) and cultured in DMEM (Dulbecco’s modified Eagle’s medium) with 10% FBS (fetal bovine serum) and streptomycin. Cytotoxicity assays were performed by using the MTT method as previously described.
(§2) The in vitro RalA/B bioactivity assays were performed following methods outlined in previous reports. ([Yan et al., 2016]; [Zhang et al., 2018]; [Walsh et al., 2019]; [Bum-Erdene et al., 2020]). In brief, the lysates of the test compound or vehicle-treated cells were cleared using cold centrifugation, and supernatants were collected. An RalBP1 solution was added to 96-well plates and incubated for 1–2 h, and then the plates were washed thrice using ELISA buffer. Next, cellular lysates were added, and samples were incubated overnight at 4°C. Then, ice-cold mouse anti-FLAG antibody was added, and samples were incubated for one more hour. After subsequent washing with ELISA buffer thrice, the HRP-conjugated anti-mouse antibody was added, and samples were incubated for another hour. Then, the HRP substrate was added. Antigen–antibody reactions were quenched by the addition of sulfuric acid (2 mol/L). Remaining RalA/B was detected by the OD450 values which were collected by using a plate reader. Cell proliferation assays, colony formation assays, apoptosis assays, GST pulldown, and Western blotting were used following methods outlined in our previous reports. ([Zhou et al., 2015]; [Zhang et al., 2016]; [Yang et al., 2017]; [He et al., 2019]). Autophagy levels and protein immunoblotting were used following the methods mentioned in our previous reports ([Pan et al., 2018]; [Wang et al., 2018]; [Hao et al., 2019]; [Wang et al., 2019]; [Peng et al., 2020]). Detailed experimental procedures are described in supporting materials.

HepG2 cells = assay: Cell proliferation assay (MTT), HepG2; format: cell-based; settings: Homo sapiens, HepG2, Table 1, cell proliferation inhibition; read-out: IC50 (μM) HepG2
Protocol: as §1, §2

RalB = target: T1, RalB (Homo sapiens, UniProt P11234); assay: ELISA-based RalB activity assay (RalBP1-coated plates, lysates of compound-treated cells); format: biochemical; settings: 1 μM compound; % control = active (RalBP1-bound) RalB remaining
T1 construct: expressed in transfected cells; host or cells: HepG2 (from b6; the methods paragraph names no cell line)
T1 sequence (P11234 1-203 limits assumed): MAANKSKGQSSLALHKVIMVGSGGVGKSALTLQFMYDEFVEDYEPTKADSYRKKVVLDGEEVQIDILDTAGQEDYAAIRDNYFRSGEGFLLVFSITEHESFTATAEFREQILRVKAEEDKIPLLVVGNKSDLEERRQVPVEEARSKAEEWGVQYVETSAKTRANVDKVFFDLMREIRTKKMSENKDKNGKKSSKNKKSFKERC
Protocol: as §2

RalA = target: T2, RalA (Homo sapiens, UniProt P11233); assay: ELISA-based RalA activity assay (RalBP1-coated plates, lysates of compound-treated cells); format: biochemical; settings: 1 μM compound; % control = activity remained
T2 construct: expressed in transfected cells; host or cells: HepG2 (from b6; the methods paragraph names no cell line)
T2 sequence (P11233 1-203 limits assumed): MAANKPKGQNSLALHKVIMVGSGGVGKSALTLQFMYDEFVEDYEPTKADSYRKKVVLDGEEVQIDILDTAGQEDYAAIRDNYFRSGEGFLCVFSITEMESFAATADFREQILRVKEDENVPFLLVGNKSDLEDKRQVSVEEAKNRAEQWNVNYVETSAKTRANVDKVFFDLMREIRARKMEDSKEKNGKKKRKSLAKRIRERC
Protocol: as §2

Row | SMILES | IC50 (Huh-7 cells) | IC50 (HepG2 cells) | remaining activity at 1 µM (RalB) | melting point | remaining activity at 1 µM (RalA)
1 | Cc1ccc(S(=O)(=O)NC2=C(C#N)C(c3cccc(Cl)c3)c3c(C)nn(-c4ccccc4)c3O2)cc1 (stereo not drawn) [4c, N-(4-(3-chlorophenyl)-5-cyano-3-methyl-1-phenyl-1,4-dihydropyrano[2,3-c]-pyrazol-6-yl)-4-methylbenzenesulfonamide] | > 10 µM | 7.28 ± 0.64 µM | 69% | 68.4 to 69 °C | 40%
2 | Cc1ccc(S(=O)(=O)NC2=C(C#N)C(c3ccncc3)c3c(C)nn(-c4ccccc4Cl)c3O2)cc1 (stereo not drawn) [4u, N-(1-(2-chlorophenyl)-5-cyano-3-methyl-4-(pyridin-4-yl)-1,4-dihydropyrano[2,3-c]-pyrazol-6-yl)-4-methylbenzenesulfonamide] | > 10 µM | 8.71 ± 0.74 µM | 50% | 79 to 80 °C | 44%
3 | Cc1ccc(S(=O)(=O)NC2=C(C#N)C(c3ccccc3)c3c(C)nn(-c4ccccc4)c3O2)cc1 (stereo not drawn) [4a, N-(5-cyano-3-methyl-1,4-diphenyl-1,4-dihydropyrano[2,3-c]-pyrazole-6-yl)-4-methylbenzenesulfonamide] | > 10 µM | > 10 µM | 85% | 68.3 to 69.7 °C | 74%
4 | COc1ccc(S(=O)(=O)NC2=C(C#N)C(c3cccc(OC)c3)c3c(C)nn(-c4ccccc4Cl)c3O2)cc1 (stereo not drawn) [4y, N-(1-(2-chlorophenyl)-5-cyano-4-(3-methoxyphenyl)-3-methyl-1,4-dihydropyrano[2,3-c]-pyrazol-6-yl)-4-methoxybenzenesulfonamide] | > 10 µM | > 10 µM | 73% | – | 54%
5 | Cc1ccc(S(=O)(=O)NC2=C(C#N)C(c3cccc(Br)c3)c3c(C)nn(-c4ccccc4)c3O2)cc1 (stereo not drawn) [4f, N-(4-(3-bromophenyl)-5-cyano-3-methyl-1-phenyl-1,4-dihydropyrano[2,3-c]-pyrazol-6-yl)-4-methylbenzenesulfonamide] | > 10 µM | 8.83 ± 0.75 µM | 71% | 68.4 to 69.5 °C | 47%
6 | Cc1ccc(S(=O)(=O)NC2=C(C#N)C(c3ccc(Br)cc3)c3c(C)nn(-c4ccccc4)c3O2)cc1 (stereo not drawn) [4d, N-(4-(4-bromophenyl)-5-cyano-3-methyl-1-phenyl-1,4-dihydropyrano[2,3-c]-pyrazol-6-yl)-4-methylbenzenesulfonamide] | > 10 µM | > 10 µM | 89% | 101.6 to 102.3 °C | 77%
7 | Cc1ccc(S(=O)(=O)NC2=C(C#N)C(c3ccco3)c3c(C)nn(-c4ccccc4)c3O2)cc1 (stereo not drawn) [4j, N-(5-cyano-4-(furan-2-yl)-3-methyl-1-phenyl-1,4-dihydropyrano[2,3-c]-pyrazol-6-yl)-4-methylbenzenesulfonamide] | 9.94 ± 1.23 µM | 9.57 ± 1.05 µM | 70% | 153.8 to 154.3 °C | 57%
8 | Cc1ccc(S(=O)(=O)NC2=C(C#N)C(c3ccc(F)cc3)c3c(C)nn(-c4ccccc4)c3O2)cc1 (stereo not drawn) [4e, N-(5-cyano-4-(4-fluorophenyl)-3-methyl-1-phenyl-1,4-dihydropyrano[2,3-c]-pyrazol-6-yl)-4-methylbenzenesulfonamide] | > 10 µM | > 10 µM | 76% | 113 to 113.5 °C | 74%
9 | Cc1ccc(-n2nc(C)c3c2OC(NS(=O)(=O)c2ccc(C)cc2)=C(C#N)C3c2ccccc2)cc1 (stereo not drawn) [4ae, N-(5-cyano-3-methyl-4-phenyl-1-(p-tolyl)-1,4-dihydro-pyrano[2,3-c]-pyrazol-6-yl)-4-methylbenzenesulfonamide] | > 10 µM | > 10 µM | 78% | 142.5 to 143 °C | 79%
10 | COc1cccc(C2C(C#N)=C(NS(=O)(=O)c3cccc([N+](=O)[O-])c3)Oc3c2c(C)nn3-c2ccccc2Cl)c1 (stereo not drawn) [4aa, N-(1-(2-chlorophenyl)-5-cyano-4-(3-methoxyphenyl)-3-methyl-1,4-dihydropyrano[2,3-c]-pyrazol-6-yl)-3-nitrobenzenesulfonamide] | > 10 µM | > 10 µM | 73% | – | 72%
11 | Cc1ccc(S(=O)(=O)NC2=C(C#N)C(c3ccc(Br)cc3F)c3c(C)nn(-c4ccccc4)c3O2)cc1 (stereo not drawn) [4h, N-(4-(4-bromo-2-fluorophenyl)-5-cyano-3-methyl-1-phen-yl-1,4-dihydropyrano[2,3-c]-pyrazol-6-yl)-4-methylbenzenesulfonamide] | > 10 µM | > 10 µM | 83% | 73.6 to 77.4 °C | 70%
12 | Cc1ccc(C2C(C#N)=C(NS(=O)(=O)c3ccc(C)cc3)Oc3c2c(C)nn3-c2ccccc2)cc1 (stereo not drawn) [4b, N-(5-cyano-3-methyl-1-phenyl-4-(p-tolyl)-1,4-dihydropyrano[2,3-c]-pyrazol-6-yl)-4-methylbenzenesulfonamide] | > 10 µM | > 10 µM | 105% | 74.7 to 75 °C | 75%
13 | Cc1ccc(S(=O)(=O)NC2=C(C#N)C(c3ccccc3)c3c(C)nn(-c4ccc(F)cc4)c3O2)cc1 (stereo not drawn) [4ag, N-(5-cyano-1-(4-fluorophenyl)-3-methyl-4-phenyl-1,4-dihydropyrano[2,3-c]-pyrazol-6-yl)-4-methylbenzenesulfonamide] | > 10 µM | > 10 µM | 75% | 138.6 to 139.3 °C | 66%
14 | COc1ccc(C2C(C#N)=C(NS(=O)(=O)c3ccc(C)cc3)Oc3c2c(C)nn3-c2ccccc2)cc1 (stereo not drawn) [4i, N-(5-cyano-4-(4-methoxyphenyl)-3-methyl-1-phenyl-1,4-dihydropyrano[2,3-c]-pyrazol-6-yl)-4-methylbenzenesulfonamide] | > 10 µM | > 10 µM | 60% | 145.2 to 146 °C | 69%
15 | Cc1ccc(S(=O)(=O)NC2=C(C#N)C(c3cccnc3)c3c(C)nn(-c4ccccc4Cl)c3O2)cc1 (stereo not drawn) [4t, N-(1-(2-chlorophenyl)-5-cyano-3-methyl-4-(pyridin-3-yl)-1,4-dihydropyrano[2,3-c]-pyrazol-6-yl)-4-methylbenzenesulfonamide] | > 10 µM | 8.28 ± 0.89 µM | 65% | – | 46%
16 | COc1cccc(C2C(C#N)=C(NS(=O)(=O)c3ccccc3[N+](=O)[O-])Oc3c2c(C)nn3-c2ccccc2Cl)c1 (stereo not drawn) [4z, N-(1-(2-chlorophenyl)-5-cyano-4-(3-methoxyphenyl)-3-methyl-1,4-dihydropyrano[2,3-c]-pyrazol-6-yl)-2-nitrobenzenesulfonamide] | > 10 µM | > 10 µM | 60% | – | 53%
17 | COc1cccc(C2C(C#N)=C(NS(=O)(=O)c3ccc([N+](=O)[O-])cc3)Oc3c2c(C)nn3-c2ccccc2Cl)c1 (stereo not drawn) [4ab, N-(1-(2-chlorophenyl)-5-cyano-4-(3-methoxyphenyl)-3-methyl-1,4-dihydropyrano[2,3-c]-pyrazol-6-yl)-4-nitrobenzenesulfonamide] | > 10 µM | > 10 µM | 65% | – | 60%
18 | Cc1ccc(S(=O)(=O)NC2=C(C#N)C(c3ccc(Cl)c(Cl)c3)c3c(C)nn(-c4ccccc4)c3O2)cc1 (stereo not drawn) [4g, N-(5-cyano-4-(3,4-dichlorophenyl)-3-methyl-1-phenyl-1,4-dihydropyrano[2,3-c]-pyrazol-6-yl)-4-methylbenzenesulfonamide] | > 10 µM | > 10 µM | 58% | – | 66%
